Assay results from US9051310B2, “Nicotinamide derivative or salt thereof” (FUJIFILM Corporation, priority 2011, dated 2015).

target: T1, glutathione S-transferase (GST)-linked full-length human Syk protein (Homo sapiens, UniProt P43405); assay: Syk enzyme assay; assay type: biochemical; details: 0.83 nM Syk, time-resolved fluorescence; read-out: IC50 of Syk-inhibitory activity
T1 construct: glutathione S-transferase (GST)-linked full-length human Syk protein; purchased Carna Biosciences; host or cells: Baculovirus expression system
Description: A glutathione S-transferase (GST)-linked full-length human Syk protein (Carna Biosciences), which had been generated using a Baculovirus expression system, was used in the Syk enzyme assay.
7.5 μl of a reaction solution (0.83 nM Syk, 20 mM HEPES, 10 mM MgCl2, 50 mM NaCl, 2 mM DTT, 0.05% BSA, pH 7.0) containing a Syk protein and a predetermined concentration of a test compound was shaken for 2 minutes, and it was then left at rest at room temperature for 13 minutes. Thereafter, 0.5 μM substrate peptide (Biotin-[…]-NH2) and 5 μL of a solution containing 67.5 μM ATP were added to the reaction solution, and the obtained mixture was then shaken for 2 minutes. The reaction solution was further left at rest at room temperature for 40 minutes, so as to carry out an enzyme reaction.
Thereafter, 50 μL of a reaction termination solution [60 nM APC-SA, 0.45 μg/mL Eu-PT66, 30 mM HEPES (pH 7.0), 150 mM KF, 30 mM EDTA, 0.15% BSA, 0.075% Tween20] containing Allophycocyanin-Streptavidin (APC-SA; PerkinElmer) and an Eu-W1024-labeled anti-phosphotyrosine PT66 antibody (Eu-PT66; PerkinElmer) was added to the reaction solution to terminate the enzyme reaction. At the same time, the reaction solution was left at rest at room temperature for 1 hour, so as to carry out an antigen-antibody reaction. Thereafter, using EnVision (PerkinElmer), the level of time-resolved fluorescence was measured at 615 nm and 665 nm, so that the phosphorylation of the substrate peptide was measured.
The following are used in Table 5 to denote standards for evaluating IC50 of Syk-inhibitory activity. • A: Up to 10 nM • B: 10 to 50 nM • C: 50 to 100 nM

Row | SMILES | IC50 [nM]
1 | COCCn1ncc2c(Nc3nc(N[C@@H]4CCCC[C@@H]4N)c(F)cc3C(N)=O)cncc21 [Example 2-384, 6-(((1R,2S)-2-aminocyclohexyl)amino)-5-fluoro-2-((1-(2-methoxyethyl)-1H-pyrazolo[3,4-c]pyridin-4-yl)amino)nicotinamide] | < 10
2 | C[C@H](N)[C@H](Nc1nc(Nc2ccc3c(c2)c(N(C)C)nn3C)c(C(N)=O)cc1F)c1cccs1 [Example 2-510, 6-(((1S,2S)-2-amino-1-(thiophen-2-yl)propyl)amino)-2-((3-(dimethylamino)-1-methyl-1H-indazol-5-yl)amino)-5-fluoronicotinamide] | < 10
3 | Cc1ccc(Nc2nc(N[C@@H]3CCCC[C@@H]3N)c(F)cc2C(N)=O)cc1Cl [Example 2-445, 6-(((1R,2S)-2-aminocyclohexyl)amino)-2-((3-chloro-4-methylphenyl)amino)-5-fluoronicotinamide] | < 10
4 | Cc1nn(C)c2ncc(Nc3nc(N[C@@H]4CCOC[C@@H]4N)c(F)cc3C(N)=O)cc12 [Example 2-333, 6-(((3R,4R)-3-aminotetrahydro-2H-pyran-4-yl)amino)-2-((1,3-dimethyl-1H-pyrazolo[3,4-b]pyridin-5-yl)amino)-5-fluoronicotinamide] | 10 to 50
5 | C[C@H](N)[C@H](Nc1nc(Nc2cncc3c2cnn3CC(F)F)c(C(N)=O)cc1F)C1CC1 [Example 2-398, 6-(((1R,2S)-2-amino-1-cyclopropylpropyl)amino)-2-((1-(2,2-difluoroethyl)-1H-pyrazolo[3,4-c]pyridin-4-yl)amino)-5-fluoronicotinamide] | < 10
6 | CCC[C@@H](Nc1nc(Nc2cnc(OCC)c(-n3cccn3)c2)c(C(N)=O)cc1F)[C@H](C)N [Example 2-201, 6-(((2S,3R)-2-aminohexan-3-yl)amino)-2-((6-ethoxy-5-(1H-pyrazol-1-yl)pyridin-3-yl)amino)-5-fluoronicotinamide] | 10 to 50
7 | C[C@H](N)[C@H](Nc1nc(Nc2cncc(-n3cc(Cl)cn3)c2)c(C(N)=O)cc1F)C1CC1 [Example 2-520, 6-(((1R,2S)-2-amino-1-cyclopropylpropyl)amino)-2-((5-(4-chloro-1H-pyrazol-1-yl)pyridin-3-yl)amino)-5-fluoronicotinamide] | < 10
8 | COc1ncc(Nc2nc(N[C@H](c3ccccc3)[C@H](C)N)c(F)cc2C(N)=O)cc1-n1ccnn1 [Example 2-336, 6-(((1R,2S)-2-amino-1-phenylpropyl)amino)-5-fluoro-2-((6-methoxy-5-(1H-1,2,3-triazol-1-yl)pyridin-3-yl)amino)nicotinamide] | < 10
9 | CCCC[C@@H](Nc1nc(Nc2cc(F)c3c(c2)c(OC)nn3C)c(C(N)=O)cc1F)[C@H](C)N [Example 2-155, 6-(((2S,3R)-2-aminoheptan-3-yl)amino)-5-fluoro-2-((7-fluoro-3-methoxy-1-methyl-1H-indazol-5-yl)amino)nicotinamide] | < 10
10 | CC[C@@H](Nc1nc(Nc2ccc3nn(C)c(N(C)C)c3c2)c(C(N)=O)cc1F)[C@H](C)N [Example 2-16, 6-(((2S,3R)-2-aminopentan-3-yl)amino)-2-((3-(dimethylamino)-2-methyl-2H-indazol-5-yl)amino)-5-fluoronicotinamide] | 10 to 50
11 | COc1ncc(Nc2nc(N[C@@H]3CCCC[C@@H]3N)c(F)cc2C(N)=O)cc1C(C)=O [Example 2-515, 2-((5-acetyl-6-methoxypyridin-3-yl)amino)-6-(((1R,2S)-2-aminocyclohexyl)amino)-5-fluoronicotinamide] | 10 to 50
12 | C[C@H](N)[C@H](Nc1nc(Nc2cnc(N3CCOCC3)c(F)c2)c(C(N)=O)cc1F)c1ccccc1F [Example 2-513, 6-(((1R,2S)-2-amino-1-(2-fluorophenyl)propyl)amino)-5-fluoro-2-((5-fluoro-6-morpholinopyridin-3-yl)amino)nicotinamide] | 10 to 50
13 | CC(C)Oc1ccc(Nc2nc(N[C@@H]3CCCC[C@@H]3N)c(F)cc2C(N)=O)cc1 [Example 2-449, 6-(((1R,2S)-2-aminocyclohexyl)amino)-5-fluoro-2-((4-isopropoxyphenyl)amino) nicotinamide] | < 10
14 | CCOc1ncc(Nc2nc(N[C@H](C3CCC3)[C@H](C)N)c(F)cc2C(N)=O)cc1-n1ccnn1 [Example 2-167, 6-(((1R,2S)-2-amino-1-cyclobutylpropyl)amino)-2-((6-ethoxy-5-(1H-1,2,3-triazol-1-yl)pyridin-3-yl)amino)-5-fluoronicotinamide] | 10 to 50
15 | CCn1ncc2cc(Nc3nc(N[C@H](Cc4ccccc4)[C@H](C)N)c(F)cc3C(N)=O)ccc21 [Example 2-423, 6-(((2R,3S)-3-amino-1-phenylbutan-2-yl)amino)-2-((1-ethyl-1H-indazol-5-yl)amino)-5-fluoronicotinamide] | < 10
16 | CCn1ncc2c(Nc3nc(N[C@H](c4cccs4)[C@H](C)N)c(F)cc3C(N)=O)cccc21 [Example 2-509, 6-(((1S,2S)-2-amino-1-(thiophen-2-yl)propyl)amino)-2-((1-ethyl-1H-indazol-4-yl)amino)-5-fluoronicotinamide] | < 10
17 | Cc1nn(C)c2ncc(Nc3nc(N[C@H](CC(C)C)[C@H](C)N)c(F)cc3C(N)=O)cc12 [Example 2-245, 6-(((2S,3R)-2-amino-5-methylhexan-3-yl)amino)-2-((1,3-dimethyl-1H-pyrazolo[3,4-b]pyridin-5-yl)amino)-5-fluoronicotinamide] | < 10
18 | CCC[C@@H](Nc1nc(Nc2cnc(N3CCOCC3)c(F)c2)c(C(N)=O)cc1F)[C@H](C)N [Example 2-260, 6-(((2S,3R)-2-aminohexan-3-yl)amino)-5-fluoro-2-((5-fluoro-6-morpholinopyridin-3-yl)amino)nicotinamide] | 10 to 50
19 | Cc1ccc(Nc2nc(N[C@@H]3CCCC[C@@H]3N)c(F)cc2C(N)=O)cc1 [Example 2-435, 6-(((1R,2S)-2-aminocyclohexyl)amino)-5-fluoro-2-(p-tolylamino)nicotinamide] | < 10

Second part, the molecule after the results:

Row | IC50 [nM] | SMILES
20 | < 10 | CC(C)C[C@@H](Nc1nc(Nc2ccc3nn(C)c(N(C)C)c3c2)c(C(N)=O)cc1F)[C@H](C)N [Example 2-15, 6-(((2S,3R)-2-amino-5-methylhexan-3-yl)amino)-2-((3-(dimethylamino)-2-methyl-2H-indazol-5-yl)amino)-5-fluoronicotinamide]
21 | < 10 | CNc1nn(C)c2ccc(Nc3nc(N[C@H](C4CC4)[C@H](C)N)c(F)cc3C(N)=O)cc12 [Example 2-498, 6-(((1R,2S)-2-amino-1-cyclopropylpropyl)amino)-5-fluoro-2-((1-methyl-3-(methylamino)-1H-indazol-5-yl)amino)nicotinamide]
22 | 10 to 50 | COCCn1nc(N(C)C)c2cc(Nc3nc(N[C@H](C4CCC4)[C@H](C)N)c(F)cc3C(N)=O)ccc21 [Example 2-506, 6-(((1R,2S)-2-amino-1-cyclobutylpropyl)amino)-2-((3-(dimethylamino)-1-(2-methoxyethyl)-1H-indazol-5-yl)amino)-5-fluoronicotinamide]
23 | < 10 | COCCn1nc(OC(F)F)c2cc(Nc3nc(N[C@@H](CN)CC(C)C)c(F)cc3C(N)=O)ccc21 [Example 2-542, (R)-6-((1-amino-4-methylpentan-2-yl)amino)-2-((3-(difluoromethoxy)-1-(2-methoxyethyl)-1H-indazol-5-yl)amino)-5-fluoronicotinamide]
24 | < 10 | CC(C)C[C@@H](Nc1nc(Nc2ccc3c(c2)c(N(C)C)nn3C)c(C(N)=O)cc1F)[C@H](C)N [Example 2-3, 6-(((2S,3R)-2-amino-5-methylhexan-3-yl)amino)-2-((3-(dimethylamino)-1-methyl-1H-indazol-5-yl)amino)-5-fluoronicotinamide]
25 | < 10 | COCCn1ncc2cc(Nc3nc(N[C@H](c4ccc(F)c(F)c4)[C@H](C)N)c(F)cc3C(N)=O)ccc21 [Example 2-554, 6-(((1R,2S)-2-amino-1-(3,4-difluorophenyl)propyl)amino)-5-fluoro-2-((1-(2-methoxyethyl)-1H-indazol-5-yl)amino)nicotinamide]
26 | 10 to 50 | COCCNc1nn(CCOC)c2ccc(Nc3nc(N[C@@H]4CCCC[C@@H]4N)c(F)cc3C(N)=O)cc12 [Example 2-535, 6-(((1R,2S)-2-aminocyclohexyl)amino)-5-fluoro-2-((1-(2-methoxyethyl)-3-((2-methoxyethyl)amino)-1H-indazol-5-yl)amino)nicotinamide]
27 | 10 to 50 | CCC[C@@H](Nc1nc(Nc2ccc3c(c2)c(N(C)CCOC)nn3C)c(C(N)=O)cc1F)[C@H](C)N [Example 2-459, 6-(((2S,3R)-2-aminohexan-3-yl)amino)-5-fluoro-2-((3-((2-methoxyethyl)(methyl)amino)-1-methyl-1H-indazol-5-yl)amino)nicotinamide]
28 | 50 to 100 | CCC[C@@H](Nc1nc(Nc2cnc(OCCOC)c(F)c2)c(C(N)=O)cc1F)[C@H](C)N [Example 2-118, 6-(((2S,3R)-2-aminohexan-3-yl)amino)-5-fluoro-2-((5-fluoro-6-(2-methoxyethoxy)pyridin-3-yl)amino)nicotinamide]
